Experimental data as given in patent publication US4504580A, “Antibiotics produced by fermentation of a novel strain of Streptomyces hygroscopicus” (Bristol-Myers Company, priority 1983, dated 1985).
In brackets after ≈: the same amount, converted by molar mass. Where two headings read alike, the source gives them in different places.

Assays:
Assay type in all cases: cell-based
[1] = test system: Staphylococcus aureus 209P; assay: MIC by serial two-fold agar dilution, S. aureus 209P; settings: Staphylococcus aureus, 209P
Description: (§1) The minimum inhibitory concentrations (MIC) of Bu-2659A, B, C, D and E were determined for a variety of gram-positive and gram-negative bacteria by the serial two-fold agar dilution method using the Steer's multi-inoculating apparatus. The inoculum was standardized as a 10^4 dilution of an overnight culture of the test organisms in Heart Infusion Broth (Difco). […] Reference antibiotics utilized in these tests included commercially available neomycin as well as its components, neomycins B and C [as used herein, the term "neomycin" means the commercial product containing neomycins B and C at an approximate ratio of 7:3], paromomycin [the commercial product containing >90% of paromomycin I and <10% of paromomycin II] and ribostamycin.

[2] = test system: Staphylococcus aureus Smith; assay: MIC by serial two-fold agar dilution, S. aureus Smith; settings: Staphylococcus aureus
Description: as §1

[3] = test system: Staphylococcus aureus D136; assay: MIC by serial two-fold agar dilution, S. aureus D136; settings: Staphylococcus aureus, D136
Description: as §1

[4] = test system: Micrococcus luteus PCI 1001; assay: MIC by serial two-fold agar dilution, M. luteus PCI 1001; settings: Micrococcus luteus, PCI1001
Description: as §1

[5] = test system: Micrococcus flavus D12; assay: MIC by serial two-fold agar dilution, M. flavus D12; settings: Micrococcus flavus, D12
Description: as §1

[6] = test system: Bacillus subtilis PCI 219; assay: MIC by serial two-fold agar dilution, B. subtilis PCI 219; settings: Bacillus subtilis, PCI219
Description: as §1

[7] = test system: Escherichia coli NIHJ; assay: MIC by serial two-fold agar dilution, E. coli NIHJ; settings: Escherichia coli
Description: as §1

[8] = test system: Escherichia coli Juhl; assay: MIC by serial two-fold agar dilution, E. coli Juhl; settings: Escherichia coli
Description: as §1

[9] = test system: Klebsiella pneumoniae D11; assay: MIC by serial two-fold agar dilution, K. pneumoniae D11; settings: Klebsiella pneumoniae, D11
Description: as §1

[10] = test system: Proteus vulgaris A9436; assay: MIC by serial two-fold agar dilution, P. vulgaris A9436; settings: Proteus vulgaris, A9436
Description: as §1

[11] = test system: Proteus mirabilis A9554; assay: MIC by serial two-fold agar dilution, P. mirabilis A9554; settings: Proteus mirabilis, A9554
Description: as §1

[12] = test system: Proteus mirabilis A9906; assay: MIC by serial two-fold agar dilution, P. mirabilis A9906; settings: Proteus mirabilis, A9906
Description: as §1

[13] = test system: Proteus morganii A9553; assay: MIC by serial two-fold agar dilution, P. morganii A9553; settings: Morganella morganii, A9553
Description: as §1

[14] = test system: Proteus rettgeri A15167; assay: MIC by serial two-fold agar dilution, P. rettgeri A15167; settings: Providencia rettgeri, A15167
Description: as §1

[15] = test system: Pseudomonas aeruginosa D15; assay: MIC by serial two-fold agar dilution, P. aeruginosa D15; settings: Pseudomonas aeruginosa, D15
Description: as §1

[16] = test system: Pseudomonas aeruginosa A9930; assay: MIC by serial two-fold agar dilution, P. aeruginosa A9930; settings: Pseudomonas aeruginosa, A9930
Description: as §1

[17] = test system: Serratia marcescens A20019; assay: MIC by serial two-fold agar dilution, S. marcescens A20019; settings: Serratia marcescens, A20019
Description: as §1

[18] = test system: gram-positive and gram-negative bacteria; assay: In vitro antibacterial spectra (MIC), overall comparison, Table 7; settings: Table 7 organisms
Description: as §1

[19] = Table 7, Mueller-Hinton agar, read-out: MIC

## NC[C@@H]1O[C@H](O[C@H]2[C@@H](O)[C@H](O[C@@H]3[C@@H](O)[C@H](N)C[C@H](N)[C@H]3O[C@H]3O[C@H](CN)[C@@H](O)[C@H](O)[C@H]3N)O[C@@H]2CO)[C@H](N)[C@@H](O)[C@@H]1O [Neomycin B, neomycin B]
[1]
  MIC: 0.4 µg/mL (≈ 0.651 µM)
[2]
  MIC: 0.4 µg/mL (≈ 0.651 µM)
[3]
  MIC: 0.4 µg/mL (≈ 0.651 µM)
[4]
  MIC: 0.8 µg/mL (≈ 1.3 µM)
[5]
  MIC: 1.6 µg/mL (≈ 2.6 µM)
[6]
  MIC: < 0.05 µg/mL
[7]
  MIC: 1.6 µg/mL (≈ 2.6 µM)
[8]
  MIC: 3.1 µg/mL (≈ 5.04 µM)
[9]
  MIC: 0.2 µg/mL (≈ 0.325 µM)
[10]
  MIC: 0.8 µg/mL (≈ 1.3 µM)
[11]
  MIC: 0.8 µg/mL (≈ 1.3 µM)
[12]
  MIC: 0.8 µg/mL (≈ 1.3 µM)
[13]
  MIC: 3.1 µg/mL (≈ 5.04 µM)
[14]
  MIC: 1.6 µg/mL (≈ 2.6 µM)
[15]
  MIC: 3.1 µg/mL (≈ 5.04 µM)
[16]
  MIC: 3.1 µg/mL (≈ 5.04 µM)
[17]
  MIC: 1.6 µg/mL (≈ 2.6 µM)

## NC[C@H]1O[C@H](O[C@H]2[C@H](O[C@@H]3O[C@H](CO)[C@@H](O[C@H]4O[C@@H](CO)[C@@H](O)[C@H](O)[C@H]4N)[C@H]3O)[C@@H](O)[C@H](O)C[C@@H]2N)[C@H](N)[C@@H](O)[C@@H]1O [Bu-2659D, 1,6'"-dideamino-1,6'"-dihydroxyneomycin B]
[1]; [19]
  MIC: 6.3 µg/mL (≈ 10.2 µM)
[2]; [19]
  MIC: 25 µg/mL (≈ 40.5 µM)
[3]; [19]
  MIC: 25 µg/mL (≈ 40.5 µM)
[4]; [19]
  MIC: 100 µg/mL (≈ 162 µM)
[5]; [19]
  MIC: 100 µg/mL (≈ 162 µM)
[6]; [19]
  MIC: 1.6 µg/mL (≈ 2.59 µM)
[7]; [19]
  MIC: 12.5 µg/mL (≈ 20.3 µM)
[8]; [19]
  MIC: 50 µg/mL (≈ 81.1 µM)
[9]; [19]
  MIC: 1.6 µg/mL (≈ 2.59 µM)
[10]; [19]
  MIC: 3.1 µg/mL (≈ 5.03 µM)
[11]; [19]
  MIC: 6.3 µg/mL (≈ 10.2 µM)
[12]; [19]
  MIC: 6.3 µg/mL (≈ 10.2 µM)
[13]; [19]
  MIC: 12.5 µg/mL (≈ 20.3 µM)
[14]; [19]
  MIC: 3.1 µg/mL (≈ 5.03 µM)
[15]; [19]
  MIC: > 100 µg/mL
[16]; [19]
  MIC: 50 µg/mL (≈ 81.1 µM)
[17]; [19]
  MIC: 100 µg/mL (≈ 162 µM)
[18]
  in vitro antibacterial activity, in words: less active than components B and C

## NC[C@H]1O[C@H](O[C@H]2[C@H](O[C@@H]3O[C@H](CO)[C@@H](O[C@H]4O[C@H](CN)[C@@H](O)[C@H](O)[C@H]4N)[C@H]3O)[C@@H](O)[C@H](N)C[C@@H]2N)[C@H](N)[C@@H](O)[C@@H]1O [Neomycin C, neomycin C]
[1]
  MIC: 0.8 µg/mL (≈ 1.3 µM)
[2]
  MIC: 1.6 µg/mL (≈ 2.6 µM)
[3]
  MIC: 1.6 µg/mL (≈ 2.6 µM)
[4]
  MIC: 50 µg/mL (≈ 81.3 µM)
[5]
  MIC: 100 µg/mL (≈ 163 µM)
[6]
  MIC: < 0.05 µg/mL
[7]
  MIC: 3.1 µg/mL (≈ 5.04 µM)
[8]
  MIC: 12.5 µg/mL (≈ 20.3 µM)
[9]
  MIC: 0.4 µg/mL (≈ 0.651 µM)
[10]
  MIC: 1.6 µg/mL (≈ 2.6 µM)
[11]
  MIC: 3.1 µg/mL (≈ 5.04 µM)
[12]
  MIC: 1.6 µg/mL (≈ 2.6 µM)
[13]
  MIC: 3.1 µg/mL (≈ 5.04 µM)
[14]
  MIC: 1.6 µg/mL (≈ 2.6 µM)
[15]
  MIC: > 100 µg/mL
[16]
  MIC: 50 µg/mL (≈ 81.3 µM)
[17]
  MIC: 6.3 µg/mL (≈ 10.2 µM)

## NC[C@H]1O[C@H](O[C@H]2[C@H](O[C@@H]3O[C@H](CO)[C@@H](O[C@H]4O[C@H](CN)[C@@H](O)[C@H](O)[C@H]4N)[C@H]3O)[C@@H](O)[C@H](O)C[C@@H]2N)[C@H](N)[C@@H](O)[C@@H]1O [Bu-2659B, 1-deamino-1-hydroxyneomycin C]
[1]; [19]
  MIC: 3.1 µg/mL (≈ 5.04 µM)
[2]; [19]
  MIC: 3.1 µg/mL (≈ 5.04 µM)
[3]; [19]
  MIC: 6.3 µg/mL (≈ 10.2 µM)
[4]; [19]
  MIC: > 100 µg/mL
[5]; [19]
  MIC: > 100 µg/mL
[6]; [19]
  MIC: 0.4 µg/mL (≈ 0.65 µM)
[7]; [19]
  MIC: 12.5 µg/mL (≈ 20.3 µM)
[8]; [19]
  MIC: 50 µg/mL (≈ 81.2 µM)
[9]; [19]
  MIC: 1.6 µg/mL (≈ 2.6 µM)
[10]; [19]
  MIC: 3.1 µg/mL (≈ 5.04 µM)
[11]; [19]
  MIC: 6.3 µg/mL (≈ 10.2 µM)
[12]; [19]
  MIC: 6.3 µg/mL (≈ 10.2 µM)
[13]; [19]
  MIC: 12.5 µg/mL (≈ 20.3 µM)
[14]; [19]
  MIC: 3.1 µg/mL (≈ 5.04 µM)
[15]; [19]
  MIC: > 100 µg/mL
[16]; [19]
  MIC: > 100 µg/mL
[17]; [19]
  MIC: 100 µg/mL (≈ 162 µM)
[18]; as active as Bu-2659A
  activity relative to Bu-2659A: approximately 1/4
